SMILES strings stand for the structures.

The results in this text go back to US7378387B2, “Method of suppressing immune response by reducing intracellular content of glutathione in macrophages and monocytes” (Ajinomoto Co., Inc., priority 1997, dated 2008).

The experiment has as its system macrophages within the thoracic cavity of the patient suffering from sarcoidosis. Briefly: GSH and GSSG content by enzyme recycling method in macrophages of a sarcoidosis patient incubated with NAC (Example 5). It is filed as cell-based, human. To be noted: 5 mM NAC, 3 hours. The source says:
The amounts of oxidative and reductive monocytes macrophages contained in monocytes preparation separated and collected in a usual manner from the peripheral blood and the thoracic cavity of the patient suffering from sarcoidosis were examined by biochemically measuring the contents of reductive glutathione (GSH) end oxidative glutathione (GSSG) by the enzyme recycling method. The peripheral blood of the healthy person was used as a control.
The peripheral blood of the healthy person and the peripheral blood of the patient suffering from sarcoidosis were collected with heparin. Or 150 ml of a physiological saline solution was injected into the bronchia of the patient using a bronchofiber, and 75 ml of bronchoalveolar lavaged fluid were recovered. Monocytes obtained by separating and purifying both of them using Ficoll-Hypaque (LYMPHOPREP) were suspended in an RPMI 1640 medium containing 10% fetal calf serum, and washed three times to obtain macrophage/monocyte preparation adherent to a glass petri dish for 30 minutes. Subsequently, a group incubated for 3 hours with the addition of 5 mM N-acetylcysteine (NAC) and a group of a medium component alone were prepared. A rubber policeman was used to recover adherent cells from the petri dish. With respect to 5×10^5 macrophages, the following examination was conducted.
The contents of reductive glutathione and oxidative glutathione were measured by the above-mentioned enzyme recycling method. […]
A 10 mM phosphate buffer (590 μl, pH 7.5) containing 0.5 mM EDTA, 100 μl of glutathione reductase (supplied by Boehlinger Mannhein) adjusted to a concentration of 6 u/ml in the same buffer, 50 μl of 4 mM NADPH (supplied by Sigma Co.) prepared with 5% NaHCO3 and 10 μl of the sample were mixed. […] The change in the absorbance of 412 nm at 37° C. over the course of time was measured using a spectrophotometer. […]

As for `CC(=O)N[C@@H](CS)C(=O)O` [NAC, N-acetylcysteine, reference compound], the “ratio of reductive GSH” value is listed as “exceeded 80%”. Besides, the “content of reductive GSH” value (without NAC 1.45 μM) came out at 20.45 µM. In addition, the “content of oxidative GSSG” value (without NAC 15.85 μM) is 4.32 µM.
